Test results taken from ChEMBL document CHEMBL3638641, “Disubstituted heteroaryl-fused pyridines” (2014).

Experiments:
[1] = biological target: T1, Orexin receptor type 2 (Homo sapiens, UniProt O43614); test: (§1) Radioligand Binding Assay I : For crude cell membrane preparations, cells (CHO, Chinese hamster ovary or HEK, human embryonic kidney) expressing human orexin 1 or human orexin 2 receptors, were washed with HEPES (10 mM, pH 7.5), scraped off the culture plates with the same buffer, and centrifuged at 4 C for 5 min at 2500 x g. The cell pellet was either stored at -80 C or used directly. Before the experiments, cell membranes were re-suspended in binding assay buffer (10 mM HEPES, 0.5% (w/v) bovine serum albumin, pH 7.5) by homogenisation with a Polytron homogeniser at 50 Hz for 20 s. In competition experiments, cell homogenates (150μΙ) were incubated in assay buffer (10 mM HEPES, pH 7.5, 0.5 % (w/v) bovine serum albumin, 5 mM MgCI2, 1 mMCaCI2, and tween 0.05%) for 1 h at room temperature with about 100 pM of the radioligand ([125l]orexin A, 2100 Ci/mmole, 50 μΙ), and with various concentrations of compounds of the invention (50 μΙ) in triplicates.
T1 sequence (O43614 whole entry): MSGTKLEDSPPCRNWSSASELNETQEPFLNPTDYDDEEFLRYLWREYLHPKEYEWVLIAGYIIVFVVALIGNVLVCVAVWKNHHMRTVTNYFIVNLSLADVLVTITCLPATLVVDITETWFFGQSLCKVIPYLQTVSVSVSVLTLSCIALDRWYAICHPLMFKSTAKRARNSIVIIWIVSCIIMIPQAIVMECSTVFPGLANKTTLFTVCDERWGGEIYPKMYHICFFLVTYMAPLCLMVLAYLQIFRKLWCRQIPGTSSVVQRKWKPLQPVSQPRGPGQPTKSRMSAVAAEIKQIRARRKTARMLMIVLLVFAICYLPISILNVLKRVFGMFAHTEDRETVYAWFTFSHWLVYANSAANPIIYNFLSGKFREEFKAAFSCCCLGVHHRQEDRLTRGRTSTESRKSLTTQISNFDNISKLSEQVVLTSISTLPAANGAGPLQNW

[2] = biological target: T2, Orexin/Hypocretin receptor type 1 (Homo sapiens, UniProt O43613); test: as §1
T2 sequence (O43613 whole entry): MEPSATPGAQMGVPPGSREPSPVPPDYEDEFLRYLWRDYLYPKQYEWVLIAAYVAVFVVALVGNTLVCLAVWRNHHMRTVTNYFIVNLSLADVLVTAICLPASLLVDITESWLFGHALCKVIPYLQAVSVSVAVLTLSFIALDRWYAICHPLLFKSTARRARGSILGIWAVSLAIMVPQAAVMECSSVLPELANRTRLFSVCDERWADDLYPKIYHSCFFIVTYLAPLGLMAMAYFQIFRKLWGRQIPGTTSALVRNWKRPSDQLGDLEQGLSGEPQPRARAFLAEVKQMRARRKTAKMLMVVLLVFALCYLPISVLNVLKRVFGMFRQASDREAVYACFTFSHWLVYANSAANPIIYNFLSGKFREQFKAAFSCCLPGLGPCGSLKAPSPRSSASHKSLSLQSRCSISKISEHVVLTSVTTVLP

- Kd [1]: 0.477 µM
- Kd [2]: 0.114 µM
Structure (SMILES): C[C@H](NC(=O)COc1cc(C(F)(F)F)c2c(-c3cccc(Cl)c3)nn(C)c2n1)c1ccccc1
